Reference: ChEMBL document CHEMBL1201862, “PubChem BioAssay data set” (2004)
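Test compounds were applied to cells in 96-well plates for 48 hours at 5 doses. Abbreviation: GI50, concentration required for 50% inhibition of growth.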 Calls of active or inactive are those of the source. No stated cut-off is given here; in the data, active = GI50 up to about 1.1 µM and inactive = higher.

Columns and labels:
Assay in all cases: inhibition of tumour cell growth, NCI panel, 48 h
HOP-62 = tested on: HOP-62
SK-MEL-5 = tested on: SK-MEL-5
HCT-15 = tested on: HCT-15
BT-549 = tested on: BT-549
MDA-N = tested on: MDA-N
SR = tested on: SR
IGROV-1 = tested on: IGROV-1
LOX IMVI = tested on: LOX IMVI
DU-145 = tested on: DU-145
SK-MEL-28 = tested on: SK-MEL-28
U-251 = tested on: U-251
HT-29 = tested on: HT-29
ACHN = tested on: ACHN
TK-10 = tested on: TK-10
MDA-MB-231 = tested on: MDA-MB-231
OVCAR-4 = tested on: OVCAR-4
NCI/ADR-RES = tested on: NCI/ADR-RES
MDA-MB-435 = tested on: MDA-MB-435
COLO 205 = tested on: COLO 205
M14 = tested on: M14
SW-620 = tested on: SW-620
NCI-H23 = tested on: NCI-H23
CCRF-CEM = tested on: CCRF-CEM
SF-539 = tested on: SF-539
SN12C = tested on: SN12C
SNB-19 = tested on: SNB-19
UO-31 = tested on: UO-31
K562 = tested on: K562
HCT-116 = tested on: HCT-116
SF-268 = tested on: SF-268
NCI-H460 = tested on: NCI-H460
OVCAR-3 = tested on: OVCAR-3
A549 = tested on: A549
UACC-257 = tested on: UACC-257
SNB-75 = tested on: SNB-75
786-0 = tested on: 786-0
MCF7 = tested on: MCF7
OVCAR-5 = tested on: OVCAR-5
A498 = tested on: A498
OVCAR-8 = tested on: OVCAR-8
EKVX = tested on: EKVX
UACC-62 = tested on: UACC-62
Malme-3M = tested on: Malme-3M
NCI-H522 = tested on: NCI-H522
CAKI-1 = tested on: CAKI-1
PC-3 = tested on: PC-3
SK-OV-3 = tested on: SK-OV-3
SK-MEL-2 = tested on: SK-MEL-2
HL-60 = tested on: HL-60
HCC 2998 = tested on: HCC 2998
HOP-92 = tested on: HOP-92
SF-295 = tested on: SF-295
KM12 = tested on: KM12
RPMI-8226 = tested on: RPMI-8226
MOLT-4 = tested on: MOLT-4
RXF 393 = tested on: RXF 393
Hs-578T = tested on: Hs-578T
T47D = tested on: T47D
NCI-H226 = tested on: NCI-H226

NC(=S)C1=C(N)Oc2c(c(=O)oc3ccccc23)C1c1ccc(Br)cc1 (stereo not drawn)
GI50 (HOP-62): > 100 µM (inactive)
GI50 (SK-MEL-5): > 100 µM (inactive)
GI50 (HCT-15): > 100 µM
GI50 (BT-549): > 100 µM (inactive)
GI50 (MDA-N): > 100 µM (inactive)
GI50 (SR): 1.61 µM (inactive)
GI50 (IGROV-1): > 100 µM (inactive)
GI50 (LOX IMVI): > 100 µM (inactive)
GI50 (DU-145): > 100 µM (inactive)
GI50 (SK-MEL-28): > 100 µM (inactive)
GI50 (U-251): > 100 µM (inactive)
GI50 (HT-29): > 100 µM (inactive)
GI50 (ACHN): > 100 µM (inactive)
GI50 (TK-10): > 100 µM (inactive)
GI50 (MDA-MB-231): > 100 µM (inactive)
GI50 (OVCAR-4): > 100 µM (inactive)
GI50 (NCI/ADR-RES): > 100 µM (inactive)
GI50 (MDA-MB-435): > 100 µM (inactive)
GI50 (COLO 205): > 100 µM (inactive)
GI50 (M14): > 100 µM (inactive)
GI50 (SW-620): > 100 µM (inactive)
GI50 (NCI-H23): > 100 µM (inactive)
GI50 (CCRF-CEM): 36.3 µM (inactive)
GI50 (SF-539): > 100 µM (inactive)
GI50 (SN12C): > 100 µM (inactive)
GI50 (SNB-19): > 100 µM (inactive)
GI50 (UO-31): > 100 µM (inactive)
GI50 (K562): 42.1 µM (inactive)
GI50 (HCT-116): > 100 µM (inactive)
GI50 (SF-268): > 100 µM (inactive)
GI50 (NCI-H460): > 100 µM (inactive)
GI50 (OVCAR-3): > 100 µM (inactive)
GI50 (A549): > 100 µM (inactive)
GI50 (UACC-257): > 100 µM (inactive)
GI50 (SNB-75): 82.6 µM (inactive)
GI50 (786-0): > 100 µM (inactive)
GI50 (MCF7): > 100 µM (inactive)
GI50 (OVCAR-5): > 100 µM (inactive)
GI50 (A498): 63.2 µM (inactive)
GI50 (OVCAR-8): > 100 µM (inactive)
GI50 (EKVX): > 100 µM (inactive)
GI50 (UACC-62): > 100 µM (inactive)
GI50 (Malme-3M): > 100 µM (inactive)
GI50 (NCI-H522): 74.8 µM (inactive)
GI50 (CAKI-1): > 100 µM (inactive)
GI50 (PC-3): > 100 µM (inactive)
GI50 (SK-OV-3): > 100 µM (inactive)
GI50 (SK-MEL-2): > 100 µM (inactive)
GI50 (HL-60): 50.8 µM (inactive)
GI50 (HCC 2998): > 100 µM (inactive)
GI50 (HOP-92): 40 µM (inactive)
GI50 (SF-295): > 100 µM (inactive)

COc1cccc(CCNC(=O)Cc2ccccc2CCO)c1
GI50 (HOP-62): > 100 µM (inactive)
GI50 (SK-MEL-5): > 100 µM (inactive)
GI50 (HCT-15): > 100 µM
GI50 (BT-549): > 100 µM (inactive)
GI50 (KM12): > 100 µM (inactive)
GI50 (SR): > 100 µM (inactive)
GI50 (IGROV-1): > 100 µM (inactive)
GI50 (DU-145): > 100 µM (inactive)
GI50 (SK-MEL-28): > 100 µM (inactive)
GI50 (U-251): > 100 µM (inactive)
GI50 (HT-29): > 100 µM (inactive)
GI50 (ACHN): > 100 µM (inactive)
GI50 (TK-10): > 100 µM (inactive)
GI50 (MDA-MB-231): > 100 µM (inactive)
GI50 (OVCAR-4): > 100 µM (inactive)
GI50 (NCI/ADR-RES): > 100 µM (inactive)
GI50 (MDA-MB-435): > 100 µM (inactive)
GI50 (COLO 205): > 100 µM (inactive)
GI50 (M14): > 100 µM (inactive)
GI50 (SW-620): > 100 µM (inactive)
GI50 (RPMI-8226): > 10 µM (inactive)
GI50 (MOLT-4): > 100 µM (inactive)
GI50 (NCI-H23): > 100 µM (inactive)
GI50 (CCRF-CEM): > 100 µM (inactive)
GI50 (SF-539): > 100 µM (inactive)
GI50 (RXF 393): > 100 µM (inactive)
GI50 (SN12C): > 100 µM (inactive)
GI50 (SNB-19): > 100 µM (inactive)
GI50 (UO-31): > 100 µM (inactive)
GI50 (K562): > 100 µM (inactive)
GI50 (HCT-116): > 100 µM (inactive)
GI50 (SF-268): > 100 µM (inactive)
GI50 (Hs-578T): > 100 µM (inactive)
GI50 (NCI-H460): > 100 µM (inactive)
GI50 (OVCAR-3): > 100 µM (inactive)
GI50 (A549): > 100 µM (inactive)
GI50 (UACC-257): > 100 µM (inactive)
GI50 (SNB-75): > 100 µM (inactive)
GI50 (786-0): > 100 µM (inactive)
GI50 (MCF7): > 100 µM (inactive)
GI50 (OVCAR-5): > 100 µM (inactive)
GI50 (A498): > 100 µM (inactive)
GI50 (OVCAR-8): > 100 µM (inactive)
GI50 (T47D): > 100 µM (inactive)
GI50 (EKVX): > 100 µM (inactive)
GI50 (NCI-H226): > 100 µM (inactive)
GI50 (UACC-62): > 100 µM (inactive)
GI50 (NCI-H522): > 100 µM (inactive)
GI50 (CAKI-1): > 100 µM (inactive)
GI50 (PC-3): > 100 µM (inactive)
GI50 (SK-OV-3): > 100 µM (inactive)
GI50 (SK-MEL-2): > 100 µM (inactive)
GI50 (HL-60): > 100 µM (inactive)
GI50 (HCC 2998): > 100 µM (inactive)
GI50 (HOP-92): > 100 µM (inactive)
GI50 (SF-295): > 100 µM (inactive)

COc1ccc(/C(Cl)=C(\C#N)c2ccc(OC)c(OC)c2)cc1OC
GI50 (HOP-62): 43.7 µM (inactive)
GI50 (SK-MEL-5): 46.8 µM (inactive)
GI50 (HCT-15): 44.3 µM
GI50 (BT-549): 57.7 µM (inactive)
GI50 (MDA-N): > 100 µM (inactive)
GI50 (SR): 40.2 µM (inactive)
GI50 (IGROV-1): > 100 µM (inactive)
GI50 (LOX IMVI): > 100 µM (inactive)
GI50 (DU-145): > 100 µM (inactive)
GI50 (U-251): 40.1 µM (inactive)
GI50 (HT-29): 38.6 µM (inactive)
GI50 (ACHN): 93.8 µM (inactive)
GI50 (TK-10): > 100 µM (inactive)
GI50 (MDA-MB-231): 35.6 µM (inactive)
GI50 (OVCAR-4): 81.5 µM (inactive)
GI50 (MDA-MB-435): 87.7 µM (inactive)
GI50 (COLO 205): 44.5 µM (inactive)
GI50 (M14): > 100 µM (inactive)
GI50 (SW-620): > 100 µM (inactive)
GI50 (RPMI-8226): 15 µM (inactive)
GI50 (MOLT-4): 78.9 µM (inactive)
GI50 (NCI-H23): 80.2 µM (inactive)
GI50 (CCRF-CEM): > 10 µM (inactive)
GI50 (SF-539): > 100 µM (inactive)
GI50 (RXF 393): 38.6 µM (inactive)
GI50 (SN12C): > 100 µM (inactive)
GI50 (SNB-19): > 100 µM (inactive)
GI50 (UO-31): 59 µM (inactive)
GI50 (K562): 48.9 µM (inactive)
GI50 (HCT-116): 60.1 µM (inactive)
GI50 (NCI-H460): 36.8 µM (inactive)
GI50 (OVCAR-3): 63.1 µM (inactive)
GI50 (A549): > 100 µM (inactive)
GI50 (UACC-257): > 100 µM (inactive)
GI50 (786-0): > 100 µM (inactive)
GI50 (MCF7): 59 µM (inactive)
GI50 (OVCAR-5): > 100 µM (inactive)
GI50 (A498): > 100 µM (inactive)
GI50 (T47D): 34.4 µM (inactive)
GI50 (EKVX): 21.3 µM (inactive)
GI50 (NCI-H226): 77.4 µM (inactive)
GI50 (UACC-62): 42.3 µM (inactive)
GI50 (NCI-H522): 59.8 µM (inactive)
GI50 (CAKI-1): 54.2 µM (inactive)
GI50 (PC-3): 79.1 µM (inactive)
GI50 (SK-MEL-2): 96.2 µM (inactive)
GI50 (HL-60): 15.3 µM (inactive)
GI50 (HCC 2998): > 100 µM (inactive)
GI50 (HOP-92): 17.8 µM (inactive)
GI50 (SF-295): 61.5 µM (inactive)
